The results in this text go back to patent publication US20200146289A1, “Herbicidal pyrimidine compounds” (BASF SE, priority 2017, published 2020).

For test [1], the system named is ALOMY. Nature of the test: greenhouse pre-emergence herbicidal test. The following applies: 125 g/ha. The class given is in vivo, Alopecurus myosuroides. The source says:
(§1) The seeds of the test plants were sown separately for each species. For the pre-emergence treatment, the active ingredients, which had been suspended or emulsified in water, were applied directly after sowing by means of finely distributing nozzles. The containers were irrigated gently to promote germination and growth and subsequently covered with transparent plastic hoods until the plants had rooted. This cover caused uniform germination of the test plants, unless this had been impaired by the active ingredients. Depending on the species, the plants were kept at 10-25° C. or 20-35° C., respectively. The test period extended over 2 to 4 weeks. During this time, the plants were tended, and their response to the individual treatments was evaluated. Evaluation was carried out using a scale from 0 to 100. 100 means no emergence of the plants, or complete destruction of at least the aerial moieties, and 0 means no damage, or normal course of growth. A good herbicidal activity is given at values of at least 70 and a very good herbicidal activity is given at values of at least 85. The plants used in the greenhouse experiments were of the following species: [table]

Test [2] has as its system ECHCG. Nature of the test: greenhouse post-emergence herbicidal test. It counts as in vivo, Echinocloa crus-galli. The settings on record: scale 0 to 100. The source says:
(§2) The seeds of the test plants were sown separately for each species. For the post-emergence treatment, the test plants were first grown to a height of 3 to 15 cm, depending on the plant habit, and only then treated with the active ingredients which had been suspended or emulsified in water. For this purpose, the test plants were either sown directly and grown in the same containers, or they were first grown separately as seedlings and transplanted into the test containers a few days prior to treatment. Depending on the species, the plants were kept at 10-25° C. or 20-35° C., respectively. The test period extended over 2 to 4 weeks. During this time, the plants were tended, and their response to the individual treatments was evaluated. Evaluation was carried out using a scale from 0 to 100. 100 means no emergence of the plants, or complete destruction of at least the aerial moieties, and 0 means no damage, or normal course of growth. A good herbicidal activity is given at values of at least 70 and a very good herbicidal activity is given at values of at least 85. The plants used in the greenhouse experiments were of the following species: [table]

Test [3] relates to ALOMY. Description: greenhouse post-emergence herbicidal test. The class given is in vivo, Alopecurus myosuroides. The settings on record: for herbicidal activity: ALOMY, scale 0 to 100; for control of ALOMY: 500 g/ha.
From the text: as §2

The test system of test [4] is AVEFA. Nature of the test: greenhouse post-emergence herbicidal test. The class given is in vivo, Avena fatua. The settings on record: for control of AVEFA: 500 g/ha; for herbicidal activity: AVEFA, scale 0 to 100.
From the text: as §2

Test [5] has as its system ECHCG. Description: greenhouse pre-emergence herbicidal test. The following applies: scale 0 to 100. The class given is in vivo, Echinocloa crus-galli.
From the text: as §1

Test [6] has as its system APESV. Description: greenhouse pre-emergence herbicidal test. The class given is in vivo, Apera spica-venti. The following applies: for control of APESV: 125 g/ha; for herbicidal activity: APESV, scale 0 to 100.
From the text: as §1

In test [7] the test system is AMARE. Nature of the test: greenhouse post-emergence herbicidal test. It counts as in vivo, Amaranthus retroflexus. The following applies: for control of AMARE: 500 g/ha; for herbicidal activity: 1000 g/ha, AMARE, scale 0 to 100.
From the text: as §2

For test [8], the system named is AGSST. Nature of the test: greenhouse post-emergence herbicidal test. The class given is in vivo, Agrostis stolonifera. The following applies: 2000 g/ha, scale 0 to 100.
From the text: as §2

The subject of test [9] is POAAN. Description: greenhouse post-emergence herbicidal test. It counts as in vivo, Poa annua. The following applies: 2000 g/ha, scale 0 to 100.
From the text: as §2

Test [10] concerns AGSST. Nature of the test: greenhouse pre-emergence herbicidal test. The class given is in vivo, Agrostis stolonifera. The settings on record: 2000 g/ha, scale 0 to 100.
From the text: as §1

Test [11] has as its system POAAN. Nature of the test: greenhouse pre-emergence herbicidal test. It counts as in vivo, Poa annua. The following applies: 2000 g/ha, scale 0 to 100.
From the text: as §1

For test [12], the system named is SETVI. Nature of the test: greenhouse post-emergence herbicidal test. The settings on record: 1000 g/ha, scale 0 to 100. The class given is in vivo, Setaria viridis.
From the text: as §2

For test [13], the system named is MATIN. Description: greenhouse post-emergence herbicidal test. The class given is in vivo, Matricaria inodora. The following applies: 2000 g/ha, scale 0 to 100.
From the text: as §2

Take `COC(=O)c1nc(C2CC2)ncc1-c1cc(C(F)(F)F)ccc1Cl` [Ex.3, Methyl 5-[2-chloro-5-(trifluoromethyl)phenyl]-2-cyclopropyl-pyrimidine-4-carboxylate]: in test [1], the “control of ALOMY” value is recorded as 85%. The herbicidal activity entry in test [2] (1000 g/ha), in test [3] (1000 g/ha), in test [4] (1000 g/ha), in test [5] (1000 g/ha) and in test [6] (1000 g/ha) was “very good (a very good herbicidal activity is given at values of at least 85)” throughout. Moreover, the “control of AVEFA” value in test [4] worked out at 85%. In addition, the “control of APESV” value in [6] was found to be 90%.
As for `O=C(O)c1nc(C2CC2)ncc1-c1cc(C(F)(F)F)ccc1Cl` [Ex.4, 5-[2-chloro-5-(trifluoromethyl)phenyl]-2-cyclopropyl-pyrimidine-4-carboxylic acid], the “control of ALOMY” value in [1] and in test [3] was 90% each time. Moreover, the herbicidal activity entry in test [2] (1000 g/ha), in test [7], in test [3] (1000 g/ha), in test [5] (1000 g/ha) and in [6] (1000 g/ha) was “very good (a very good herbicidal activity is given at values of at least 85)” in each case. Moreover, the “control of AMARE” value in test [7] came to 80%. Besides, the “control of AVEFA” value in test [4] was 90%. Moreover, the “control of APESV” value in [6] is 100%.
`COC(=O)c1nc(C2CC2)ncc1-c1cc(C(F)(F)F)ccc1Br` [Ex.5]: the herbicidal activity entry in test [8] is on record as “very good (a very good herbicidal activity is given at values of at least 85)”; in test [9] it was “very good (a very good herbicidal activity is given at values of at least 85)”; in [10], “good (A good herbicidal activity is given at values of at least 70)”; in [11], “very good (a very good herbicidal activity is given at values of at least 85)”.
Turning to `O=C(O)c1nc(C2CC2)ncc1-c1cc(C(F)(F)F)ccc1Br` [Ex.6], the herbicidal activity result in test [12], in [2] (1000 g/ha), in test [3] (1000 g/ha), in test [5] (1000 g/ha) and in test [6] (1000 g/ha) was “very good (a very good herbicidal activity is given at values of at least 85)” throughout.
For the molecule `COC(=O)c1nc(C2CC2)ncc1-c1cc(C(F)F)ccc1Cl` [Ex.7], the herbicidal activity entry in test [2] (1000 g/ha), in test [3] (1000 g/ha), in test [4] (1000 g/ha), in [5] (1000 g/ha) and in test [6] (1000 g/ha) was “very good (a very good herbicidal activity is given at values of at least 85)” in each case. In addition, the “control of AVEFA” value in [4] came to 90%.
On to `O=C(O)c1nc(C2CC2)ncc1-c1cc(C(F)F)ccc1Cl` [Ex.8], for which the herbicidal activity result in [12], in test [7], in [3] (1000 g/ha), in [5] (1000 g/ha) and in test [6] (1000 g/ha) was “very good (a very good herbicidal activity is given at values of at least 85)” each time. For the same molecule, the “control of AMARE” value in [7] is recorded as 100%. Besides, the “control of ALOMY” value in test [3] came to 90%. Further, the “control of AVEFA” value in [4] stood at 90%.
For the molecule `O=C(O)c1nc(C2CC2)ncc1-c1cc(C(F)(F)F)cc(Br)c1Br` [Ex.9], the herbicidal activity entry in [9] was “very good (a very good herbicidal activity is given at values of at least 85)”; in test [13], “very good (a very good herbicidal activity is given at values of at least 85)”; in test [11], “very good (a very good herbicidal activity is given at values of at least 85)”; in [6] (2000 g/ha), “good (A good herbicidal activity is given at values of at least 70)”.
As to `COC(=O)c1nc(C2CC2)ncc1-c1cc(OC(F)(F)F)ccc1F` [Ex.11], the herbicidal activity result in test [3] (2000 g/ha), in test [4] (2000 g/ha), in [5] (2000 g/ha) and in test [6] (2000 g/ha) was “very good (a very good herbicidal activity is given at values of at least 85)” each time.
`O=C(O)c1nc(C2CC2)ncc1-c1cc(OC(F)(F)F)ccc1F` [Ex.12]: the figures for the herbicidal activity entry in [3] (2000 g/ha), in test [4] (2000 g/ha) and in [6] (2000 g/ha) were “very good (a very good herbicidal activity is given at values of at least 85)”, “good (A good herbicidal activity is given at values of at least 70)” and “very good (a very good herbicidal activity is given at values of at least 85)”, respectively.
Turning to `COC(=O)c1nc(C2CC2)ncc1-c1cc(C(F)(F)F)ccc1C` [Ex.13], the herbicidal activity result in [3] (2000 g/ha), in test [5] (2000 g/ha) and in test [6] (2000 g/ha) was “very good (a very good herbicidal activity is given at values of at least 85)” throughout.
Regarding `Cc1ccc(C(F)(F)F)cc1-c1cnc(C2CC2)nc1C(=O)O` [Ex.14], the herbicidal activity result in test [2] (2000 g/ha), in [3] (2000 g/ha), in [4] (2000 g/ha), in test [5] (2000 g/ha) and in test [6] (2000 g/ha) was “very good (a very good herbicidal activity is given at values of at least 85)” in each case.
